#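 Tested at 5 concentrations; 48 h exposure; 96-well plates; endpoints linearly interpolated, else capped at highest concentration. Here, GI50 denotes the concentration required for 50% inhibition of growth.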 Active and inactive are the calls of the source. No stated cut-off is given here; in the data, active = GI50 up to about 1.1 µM and inactive = higher.
# Tests used:
# Assay in all cases: growth of human tumour cells (NCI), 48 h
# [1] = test system: UO-31
# [2] = test system: COLO 205
# [3] = test system: NCI-H522
# [4] = test system: SR
# [5] = test system: ACHN
# [6] = test system: DLD-1
# [7] = test system: HOP-92
# [8] = test system: XF498
# [9] = test system: CAKI-1
# [10] = test system: M14
# [11] = test system: M19-MEL
# [12] = test system: IGROV-1
# [13] = test system: HCT-15
# [14] = test system: OVCAR-3
# [15] = test system: HT-29
# [16] = test system: 786-0
# [17] = test system: UACC-62
# [18] = test system: KM-20L2
# [19] = test system: U-251
# [20] = test system: SW-620
# [21] = test system: NCI-H23
# [22] = test system: EKVX
# [23] = test system: UACC-257
# [24] = test system: HL-60
# [25] = test system: SF-295
# [26] = test system: SK-OV-3
# [27] = test system: OVCAR-4
# [28] = test system: DMS-273
# [29] = test system: A549
# [30] = test system: HOP-62
# [31] = test system: LOX IMVI
# [32] = test system: HCT-116
# [33] = test system: MOLT-4
# [34] = test system: SN12C
# [35] = test system: SNB-78
# [36] = test system: RXF 393
# [37] = test system: SNB-19
# [38] = test system: OVCAR-5
# [39] = test system: KM12
# [40] = test system: SK-MEL-5
# [41] = test system: RPMI-8226
# [42] = test system: OVCAR-8
# [43] = test system: SF-268
# [44] = test system: DMS-114
# [45] = test system: SK-MEL-28
# [46] = test system: NCI-H460
# [47] = test system: LXFL 529
# [48] = test system: HOP-18
# [49] = test system: SNB-75
# [50] = test system: SF-539
# [51] = test system: TK-10
# [52] = test system: K562
# [53] = test system: CCRF-CEM
# [54] = test system: NCI-H226
# [55] = test system: SK-MEL-2
# [56] = test system: Malme-3M
# [57] = test system: A498
# [58] = test system: HCC 2998
compound,measurement,setting,value
N#C/C(=C/Sc1ccccc1)C(=O)O,GI50,[1],12.6 µM (inactive)
same,GI50,[2],20.9 µM (inactive)
same,GI50,[3],10.9 µM (inactive)
same,GI50,[4],> 100 µM (inactive)
same,GI50,[5],27.6 µM (inactive)
same,GI50,[6],36 µM (inactive)
same,GI50,[7],57.7 µM (inactive)
same,GI50,[8],41.8 µM (inactive)
same,GI50,[9],27.3 µM (inactive)
same,GI50,[10],22 µM (inactive)
same,GI50,[11],23.3 µM (inactive)
same,GI50,[12],17.9 µM (inactive)
same,GI50,[13],21.9 µM
same,GI50,[14],27.1 µM (inactive)
same,GI50,[15],24.7 µM (inactive)
same,GI50,[16],22.6 µM (inactive)
same,GI50,[17],26 µM (inactive)
same,GI50,[18],30.1 µM (inactive)
same,GI50,[19],13.5 µM (inactive)
same,GI50,[20],41.2 µM (inactive)
same,GI50,[21],45.1 µM (inactive)
same,GI50,[22],40.7 µM (inactive)
same,GI50,[23],34.4 µM (inactive)
same,GI50,[24],34.4 µM (inactive)
same,GI50,[25],37.3 µM (inactive)
same,GI50,[26],59.4 µM (inactive)
same,GI50,[27],40.7 µM (inactive)
same,GI50,[28],22.2 µM (inactive)
same,GI50,[29],17.4 µM (inactive)
same,GI50,[30],43.9 µM (inactive)
same,GI50,[31],10.6 µM (inactive)
same,GI50,[32],17.4 µM (inactive)
same,GI50,[33],14.9 µM (inactive)
same,GI50,[34],20 µM (inactive)
same,GI50,[35],18 µM (inactive)
same,GI50,[36],14.3 µM (inactive)
same,GI50,[37],56.2 µM (inactive)
same,GI50,[38],29.6 µM (inactive)
same,GI50,[39],19.1 µM (inactive)
same,GI50,[40],29.6 µM (inactive)
same,GI50,[41],24.5 µM (inactive)
same,GI50,[42],17 µM (inactive)
same,GI50,[43],8.59 µM (inactive)
same,GI50,[44],15.1 µM (inactive)
same,GI50,[45],24.5 µM (inactive)
same,GI50,[46],25.7 µM (inactive)
same,GI50,[47],21.2 µM (inactive)
same,GI50,[48],> 100 µM (inactive)
same,GI50,[49],19.2 µM (inactive)
same,GI50,[50],18.2 µM (inactive)
same,GI50,[51],38.7 µM (inactive)
same,GI50,[52],43.1 µM (inactive)
same,GI50,[53],9.25 µM (inactive)
same,GI50,[54],23.3 µM (inactive)
same,GI50,[55],24.7 µM (inactive)
O=C(/C=C/c1ccccc1)/C=C/c1ccccc1O,GI50,[1],16.4 µM (inactive)
same,GI50,[2],17.3 µM (inactive)
same,GI50,[3],15.5 µM (inactive)
same,GI50,[4],26.6 µM (inactive)
same,GI50,[5],19.4 µM (inactive)
same,GI50,[6],18 µM (inactive)
same,GI50,[7],83.8 µM (inactive)
same,GI50,[8],49.1 µM (inactive)
same,GI50,[56],< 0.01 µM (active)
same,GI50,[9],22 µM (inactive)
same,GI50,[10],21 µM (inactive)
same,GI50,[11],17.9 µM (inactive)
same,GI50,[12],18.7 µM (inactive)
same,GI50,[13],15.9 µM
same,GI50,[14],0.0401 µM (active)
same,GI50,[15],24.4 µM (inactive)
same,GI50,[16],16.7 µM (inactive)
same,GI50,[17],19 µM (inactive)
same,GI50,[18],19.1 µM (inactive)
same,GI50,[19],17.6 µM (inactive)
same,GI50,[20],11.6 µM (inactive)
same,GI50,[57],30.1 µM (inactive)
same,GI50,[21],24.9 µM (inactive)
same,GI50,[22],18.8 µM (inactive)
same,GI50,[23],20.8 µM (inactive)
same,GI50,[24],12.9 µM (inactive)
same,GI50,[25],24.4 µM (inactive)
same,GI50,[26],19.1 µM (inactive)
same,GI50,[29],23.9 µM (inactive)
same,GI50,[30],38.8 µM (inactive)
same,GI50,[31],18.2 µM (inactive)
same,GI50,[58],12.5 µM (inactive)
same,GI50,[32],15.1 µM (inactive)
same,GI50,[33],19.8 µM (inactive)
same,GI50,[34],16.2 µM (inactive)
same,GI50,[35],37.3 µM (inactive)
same,GI50,[36],20.8 µM (inactive)
same,GI50,[37],23.3 µM (inactive)
same,GI50,[38],29.3 µM (inactive)
same,GI50,[39],17.8 µM (inactive)
same,GI50,[40],20.1 µM (inactive)
same,GI50,[41],16.4 µM (inactive)
same,GI50,[42],17 µM (inactive)
same,GI50,[43],32.9 µM (inactive)
same,GI50,[44],17.8 µM (inactive)
same,GI50,[45],34.6 µM (inactive)
same,GI50,[46],19.1 µM (inactive)
same,GI50,[47],16.8 µM (inactive)
same,GI50,[48],0.488 µM (active)
same,GI50,[50],22 µM (inactive)
same,GI50,[51],30.1 µM (inactive)
same,GI50,[52],16.4 µM (inactive)
same,GI50,[53],17 µM (inactive)
same,GI50,[54],22 µM (inactive)
same,GI50,[55],59.3 µM (inactive)
